Article PMC10862539, “Chelation of Mitochondrial Iron as an Antiparasitic Strategy” (ACS Infectious Diseases, 2024)
Where “and” joins values, the source holds several entries; their conditions need not be identical. Equal entries are not always repeated.

Key:
[1] = molecular target: isolated mitochondria of T. brucei 427; test: Mitochondrial membrane intactness in isolated mitochondria (threonine dehydrogenase marker); set-up: species or system Trypanosoma brucei; details: threonine dehydrogenase activity as marker, read-out: 50% membrane intactness (inner membrane permeability increased by 50%)
Method: Mitochondrial intactness was assessed by isolating the mitochondrial fraction of untreated cells, as described above, without the addition of Triton X-100 and adding different concentrations of mitoDFO. Threonine dehydrogenase activity was measured as a marker of the disintegration of mitochondrial membranes. Triton X-100 was used to disrupt membrane integrity and served as a positive control to obtain maximum activity. All experiments were performed in at least three biologically independent replicates and plotted and analyzed using Prism 8.0 (GraphPad Software).

Human fibroblast BJ1 = test system: Human fibroblast BJ1; set-up: method as in C. Sandoval-Acuña et al.[25]; details: ref C. Sandoval-Acuña et al.[25], read-out: control EC50; cited from earlier work
Cryptococcus neoformans = test: C. neoformans capsule size (India ink microscopy); type: cell-based; details: 20 μM mitoDFO for 24 h; 31 cells
Method: C. neoformans capsule thickness was measured using a previously published protocol.[33] Briefly, the yeast was seeded in 1 mL of RPMI in a 24 well plate with and without a final concentration of 20 μM mitoDFO for 24 h at 35 °C. The culture was harvested (1300 g, 5 min, RT) and resuspended in 50 μL of RPMI. An equal amount of India Ink (Thermo-Fisher) was added, and a total volume of 15 μL of resuspended cells was placed on a microscope slide, covered with cover glass, and imaged on an Eclipse TI-S (Nikon) inverted microscope using 100× magnification. A total of 31 cells were randomly selected, excluding morphologically anomalous and overlapping cells. Using NIS Elements BR (Nikon), the inner and outer diameters of each cell were measured, and cell size and capsule thickness were calculated. Graphs were plotted, and an unpaired t-test was performed using Prism 8.0 (GraphPad Software).

Babesia gibsoni = test system: Babesia gibsoni; set-up: method as in PMID 18771856; details: B. gibsoni; ref [40]; cited from earlier work

Compound	EC50 [1]	EC50 (Human fibroblast BJ1)	capsule thickness (Cryptococcus neoformans)	overall cell size (Cryptococcus neoformans)	EC50 (Babesia gibsoni)
CC(=O)N(O)CCCCCNC(=O)CCC(=O)N(O)CCCCCNC(=O)CCC(=O)N(O)CCCCCN(CCCCCCCCCC[P+](c1ccccc1)(c1ccccc1)c1ccccc1)CCCCCCCCCC[P+](c1ccccc1)(c1ccccc1)c1ccccc1 [mitoDFO]	63.2 µM and 63 µM	7.9 ± 3.9 µM	increases significantly	remains the same	
CC(=O)N(O)CCCCCNC(=O)CCC(=O)N(O)CCCCCNC(=O)CCC(=O)N(O)CCCCCN [DFO, Deferoxamine, reference compound]					6.45 ± 3.43 µM
